What was measured:
[1] = target: Dual specificity protein kinase CLK1 (Mus musculus, UniProt P22518); experiment: Inhibition of recombinant mouse CLK1 expressed in bacteria using GRSRSRSRSRSR as substrate in presence of ATP measured after 30 mins by ADP-Glo assay
[2] = target: Dual specificity tyrosine-phosphorylation-regulated kinase 1A (Rattus norvegicus, UniProt Q63470); experiment: Inhibition of recombinant rat DYRK1A (1 to 499 residues ) expressed in bacterial expression system using KKISGRLSPIMTEQ as substrate measured after 30 mins in presence of ATP by ADP-Glo assay
[3] = target: T1, Serine/threonine-protein kinase haspin (Homo sapiens, UniProt Q8TF76)
T1 sequence (Q8TF76 whole entry): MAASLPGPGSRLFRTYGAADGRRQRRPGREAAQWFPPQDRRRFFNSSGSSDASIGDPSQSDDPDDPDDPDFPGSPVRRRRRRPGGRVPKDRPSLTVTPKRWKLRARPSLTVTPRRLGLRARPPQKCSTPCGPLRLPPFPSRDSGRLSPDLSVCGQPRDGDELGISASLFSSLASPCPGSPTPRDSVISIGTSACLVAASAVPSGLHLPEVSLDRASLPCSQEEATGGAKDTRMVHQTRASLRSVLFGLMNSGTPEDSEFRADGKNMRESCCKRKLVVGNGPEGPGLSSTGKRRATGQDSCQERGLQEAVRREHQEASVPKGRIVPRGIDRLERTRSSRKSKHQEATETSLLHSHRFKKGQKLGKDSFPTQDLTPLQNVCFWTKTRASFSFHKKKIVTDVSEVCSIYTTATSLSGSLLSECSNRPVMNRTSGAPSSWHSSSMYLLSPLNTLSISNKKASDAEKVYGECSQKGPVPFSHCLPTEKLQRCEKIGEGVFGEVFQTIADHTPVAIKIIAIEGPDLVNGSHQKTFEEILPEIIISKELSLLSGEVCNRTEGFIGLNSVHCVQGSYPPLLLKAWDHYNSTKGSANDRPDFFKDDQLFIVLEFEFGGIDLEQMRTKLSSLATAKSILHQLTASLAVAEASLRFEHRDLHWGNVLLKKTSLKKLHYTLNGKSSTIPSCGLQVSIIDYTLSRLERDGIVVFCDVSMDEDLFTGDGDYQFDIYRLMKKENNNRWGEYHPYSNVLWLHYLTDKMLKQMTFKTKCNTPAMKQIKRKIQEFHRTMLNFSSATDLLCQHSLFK

[4] = target: Serine/threonine-protein kinase pim-1 (Homo sapiens, UniProt P11309); experiment: Inhibition of recombinant human PIM1 expressed in bacterial expression system using histone H1 as substrate measured after 30 mins in presence of ATP by ADP-Glo assay
Chain of Serine/threonine-protein kinase pim-1 (P11309 whole entry): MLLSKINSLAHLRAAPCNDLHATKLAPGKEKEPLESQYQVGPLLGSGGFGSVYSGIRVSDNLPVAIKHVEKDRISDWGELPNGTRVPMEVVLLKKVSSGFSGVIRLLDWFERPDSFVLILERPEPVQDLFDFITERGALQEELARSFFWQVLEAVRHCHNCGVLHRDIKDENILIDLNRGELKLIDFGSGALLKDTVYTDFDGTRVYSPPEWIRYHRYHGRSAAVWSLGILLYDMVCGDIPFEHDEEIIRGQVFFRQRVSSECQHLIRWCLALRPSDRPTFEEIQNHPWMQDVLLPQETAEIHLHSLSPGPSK

[5] = target: Glycogen synthase kinase-3 beta (Homo sapiens, UniProt P49841); experiment: Inhibition of human recombinant GSK3beta expressed in baculovirus in Sf9 insect cells using YRRAAVPPSPSLSRHSSPHQSpEDEEE as substrate measured after 30 mins by ADP-Glo kinase assay
Chain of Glycogen synthase kinase-3 beta (P49841 whole entry, canonical isoform): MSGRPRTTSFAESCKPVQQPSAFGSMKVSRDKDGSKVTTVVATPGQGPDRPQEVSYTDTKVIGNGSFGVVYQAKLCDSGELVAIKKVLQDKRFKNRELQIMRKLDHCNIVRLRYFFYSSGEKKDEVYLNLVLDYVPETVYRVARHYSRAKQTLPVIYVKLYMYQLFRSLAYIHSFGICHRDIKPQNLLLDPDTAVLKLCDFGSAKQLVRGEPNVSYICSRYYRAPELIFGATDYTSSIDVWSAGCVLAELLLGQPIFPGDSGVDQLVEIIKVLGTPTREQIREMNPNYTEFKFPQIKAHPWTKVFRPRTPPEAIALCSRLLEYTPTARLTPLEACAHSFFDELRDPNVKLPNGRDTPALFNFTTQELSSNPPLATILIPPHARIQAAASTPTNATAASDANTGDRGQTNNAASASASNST

[6] = target: Casein kinase I isoform epsilon (Homo sapiens, UniProt P49674); experiment: Inhibition of human recombinant CK1 epsilon expressed in baculovirus in sf9 insect cells using RRKHAAIGSpAYSITA as substrate in presence of ATP measured after 30 mins by ADP-Glo assay
Chain of Casein kinase I isoform epsilon (P49674 whole entry, canonical isoform): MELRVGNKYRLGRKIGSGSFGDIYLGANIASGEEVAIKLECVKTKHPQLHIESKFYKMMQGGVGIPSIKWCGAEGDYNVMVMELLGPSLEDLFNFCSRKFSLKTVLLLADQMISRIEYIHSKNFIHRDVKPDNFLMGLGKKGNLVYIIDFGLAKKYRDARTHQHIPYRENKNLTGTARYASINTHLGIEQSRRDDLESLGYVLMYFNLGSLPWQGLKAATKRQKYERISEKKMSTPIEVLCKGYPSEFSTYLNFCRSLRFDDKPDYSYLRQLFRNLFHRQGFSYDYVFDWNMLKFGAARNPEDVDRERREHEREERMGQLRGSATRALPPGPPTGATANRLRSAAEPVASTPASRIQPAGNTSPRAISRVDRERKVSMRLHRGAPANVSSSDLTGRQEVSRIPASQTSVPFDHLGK

[7] = target: Cyclin-dependent kinase 5/CDK5 activator 1 (Homo sapiens, UniProt Q00535); experiment: Inhibition of human recombinant CDK5/p25 expressed in bacterial expression system using histone H1 as substrate in presence of ATP at measured after 30 mins by ADP-Glo assay
Chain of Cyclin-dependent kinase 5/CDK5 activator 1 (Q00535 whole entry): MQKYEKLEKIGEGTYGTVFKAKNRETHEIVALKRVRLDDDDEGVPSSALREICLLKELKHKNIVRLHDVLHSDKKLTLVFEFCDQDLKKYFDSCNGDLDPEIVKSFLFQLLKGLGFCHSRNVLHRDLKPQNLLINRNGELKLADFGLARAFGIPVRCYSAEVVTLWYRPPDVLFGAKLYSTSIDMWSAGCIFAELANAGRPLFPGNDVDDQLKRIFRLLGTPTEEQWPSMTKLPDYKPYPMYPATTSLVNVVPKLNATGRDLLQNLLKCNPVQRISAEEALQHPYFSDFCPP
Chain of Cyclin-dependent kinase 5/CDK5 activator 1 (Q15078 whole entry, further chain): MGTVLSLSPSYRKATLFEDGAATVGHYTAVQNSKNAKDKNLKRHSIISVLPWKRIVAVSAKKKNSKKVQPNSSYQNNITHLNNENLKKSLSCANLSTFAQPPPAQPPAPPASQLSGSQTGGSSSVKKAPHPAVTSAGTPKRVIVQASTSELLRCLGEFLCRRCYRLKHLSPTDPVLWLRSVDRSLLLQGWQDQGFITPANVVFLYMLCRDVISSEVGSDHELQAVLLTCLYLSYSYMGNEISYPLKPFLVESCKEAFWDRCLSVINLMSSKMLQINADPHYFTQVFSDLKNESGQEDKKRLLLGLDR

[8] = target: Tyrosine-protein kinase ABL1 (Homo sapiens, UniProt P00519); experiment: Inhibition of human recombinant ABL1 expressed in baculovirus sf9 insect cells using EAIYAAPFAKKK as substrate measured after 30 mins in presence of ATP by ADP-Glo assay
[9] = target: T2, Tyrosine-protein kinase JAK3 (Homo sapiens, UniProt P52333); experiment: Inhibition of human recombinant JAK3 expressed in baculovirus sf9 insect cells using GGEEEEYFELVKKKK as substrate measured after 30 mins in presence of ATP by ADP-Glo assay
T2 sequence (P52333 whole entry): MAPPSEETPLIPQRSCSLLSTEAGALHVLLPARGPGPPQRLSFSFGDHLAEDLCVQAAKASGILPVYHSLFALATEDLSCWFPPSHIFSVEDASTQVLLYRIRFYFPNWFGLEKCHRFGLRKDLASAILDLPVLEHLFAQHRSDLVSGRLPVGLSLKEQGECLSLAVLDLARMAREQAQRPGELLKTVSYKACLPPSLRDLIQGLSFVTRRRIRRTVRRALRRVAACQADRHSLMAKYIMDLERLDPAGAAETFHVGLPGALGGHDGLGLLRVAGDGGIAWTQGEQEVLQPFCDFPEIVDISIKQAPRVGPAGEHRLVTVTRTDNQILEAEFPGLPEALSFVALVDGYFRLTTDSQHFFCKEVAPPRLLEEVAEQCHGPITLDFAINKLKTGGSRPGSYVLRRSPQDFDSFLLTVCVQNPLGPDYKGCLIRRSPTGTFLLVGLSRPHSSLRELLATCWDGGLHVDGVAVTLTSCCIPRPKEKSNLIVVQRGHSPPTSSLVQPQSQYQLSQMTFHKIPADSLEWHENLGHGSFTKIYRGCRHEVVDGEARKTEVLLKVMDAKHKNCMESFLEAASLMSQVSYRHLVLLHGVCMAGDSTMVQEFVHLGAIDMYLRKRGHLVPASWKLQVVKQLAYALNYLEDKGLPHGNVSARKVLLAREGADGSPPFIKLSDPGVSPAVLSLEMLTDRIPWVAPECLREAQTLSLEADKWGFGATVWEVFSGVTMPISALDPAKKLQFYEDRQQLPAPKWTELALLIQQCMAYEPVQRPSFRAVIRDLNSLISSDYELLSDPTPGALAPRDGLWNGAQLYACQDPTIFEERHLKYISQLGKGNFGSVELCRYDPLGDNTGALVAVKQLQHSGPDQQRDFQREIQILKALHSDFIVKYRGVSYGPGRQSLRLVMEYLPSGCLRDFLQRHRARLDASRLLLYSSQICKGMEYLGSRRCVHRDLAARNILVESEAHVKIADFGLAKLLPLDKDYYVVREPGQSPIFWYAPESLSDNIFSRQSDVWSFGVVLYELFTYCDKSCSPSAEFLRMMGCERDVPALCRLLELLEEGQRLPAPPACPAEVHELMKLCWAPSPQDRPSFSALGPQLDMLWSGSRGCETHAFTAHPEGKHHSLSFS

[10] = Cytotoxicity against human TERT-RPE1 cells assessed as reduction in cell viability measured after 48 hrs by MTS assay; format: toxicity, cell-based
[11] = target: Serine/threonine-protein kinase PLK1 (Homo sapiens, UniProt P53350); experiment: Inhibition of human PLK1 in presence of ATP by kinomescan assay
Chain of Serine/threonine-protein kinase PLK1 (P53350 whole entry): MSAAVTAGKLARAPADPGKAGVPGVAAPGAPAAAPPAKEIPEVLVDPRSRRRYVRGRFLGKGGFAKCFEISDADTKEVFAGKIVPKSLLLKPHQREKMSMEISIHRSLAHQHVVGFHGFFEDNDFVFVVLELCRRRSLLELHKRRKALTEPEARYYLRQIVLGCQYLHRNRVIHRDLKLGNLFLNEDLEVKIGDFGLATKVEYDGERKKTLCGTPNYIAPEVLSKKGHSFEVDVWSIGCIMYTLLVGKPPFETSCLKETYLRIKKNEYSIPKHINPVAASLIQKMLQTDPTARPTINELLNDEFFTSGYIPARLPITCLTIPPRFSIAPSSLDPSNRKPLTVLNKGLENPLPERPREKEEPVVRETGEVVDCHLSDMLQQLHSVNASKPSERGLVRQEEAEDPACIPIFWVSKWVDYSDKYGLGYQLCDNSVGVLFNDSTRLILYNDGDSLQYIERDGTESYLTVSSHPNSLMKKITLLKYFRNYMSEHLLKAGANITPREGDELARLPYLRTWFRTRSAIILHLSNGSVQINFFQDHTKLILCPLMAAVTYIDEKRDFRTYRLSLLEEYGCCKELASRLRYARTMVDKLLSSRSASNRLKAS

[12] = target: Serine/threonine-protein kinase PLK2 (Homo sapiens, UniProt Q9NYY3); experiment: Inhibition of human PLK2 in presence of ATP by kinomescan assay
Chain of Serine/threonine-protein kinase PLK2 (Q9NYY3 whole entry): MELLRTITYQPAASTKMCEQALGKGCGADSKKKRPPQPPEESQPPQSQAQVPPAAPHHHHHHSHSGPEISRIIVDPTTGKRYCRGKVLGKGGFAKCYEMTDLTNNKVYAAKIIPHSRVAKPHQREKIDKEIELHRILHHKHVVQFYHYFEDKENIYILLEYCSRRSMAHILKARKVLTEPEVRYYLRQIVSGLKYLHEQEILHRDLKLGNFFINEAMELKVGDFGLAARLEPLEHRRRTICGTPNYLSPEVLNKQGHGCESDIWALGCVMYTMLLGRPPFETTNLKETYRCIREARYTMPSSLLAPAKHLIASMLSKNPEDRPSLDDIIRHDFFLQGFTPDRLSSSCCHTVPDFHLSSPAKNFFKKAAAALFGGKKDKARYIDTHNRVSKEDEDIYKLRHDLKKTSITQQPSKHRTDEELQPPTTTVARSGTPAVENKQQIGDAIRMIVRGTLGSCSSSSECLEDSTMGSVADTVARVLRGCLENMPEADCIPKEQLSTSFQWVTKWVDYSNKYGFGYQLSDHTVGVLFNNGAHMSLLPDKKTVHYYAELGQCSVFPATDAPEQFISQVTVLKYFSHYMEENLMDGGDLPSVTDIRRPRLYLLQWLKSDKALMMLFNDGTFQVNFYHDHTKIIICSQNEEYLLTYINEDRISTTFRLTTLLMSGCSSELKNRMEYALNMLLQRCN

[13] = target: Serine/threonine-protein kinase PLK3 (Homo sapiens, UniProt Q9H4B4); experiment: Inhibition of human recombinant PLK3 in presence of ATP by kinomescan assay
Chain of Serine/threonine-protein kinase PLK3 (Q9H4B4 whole entry): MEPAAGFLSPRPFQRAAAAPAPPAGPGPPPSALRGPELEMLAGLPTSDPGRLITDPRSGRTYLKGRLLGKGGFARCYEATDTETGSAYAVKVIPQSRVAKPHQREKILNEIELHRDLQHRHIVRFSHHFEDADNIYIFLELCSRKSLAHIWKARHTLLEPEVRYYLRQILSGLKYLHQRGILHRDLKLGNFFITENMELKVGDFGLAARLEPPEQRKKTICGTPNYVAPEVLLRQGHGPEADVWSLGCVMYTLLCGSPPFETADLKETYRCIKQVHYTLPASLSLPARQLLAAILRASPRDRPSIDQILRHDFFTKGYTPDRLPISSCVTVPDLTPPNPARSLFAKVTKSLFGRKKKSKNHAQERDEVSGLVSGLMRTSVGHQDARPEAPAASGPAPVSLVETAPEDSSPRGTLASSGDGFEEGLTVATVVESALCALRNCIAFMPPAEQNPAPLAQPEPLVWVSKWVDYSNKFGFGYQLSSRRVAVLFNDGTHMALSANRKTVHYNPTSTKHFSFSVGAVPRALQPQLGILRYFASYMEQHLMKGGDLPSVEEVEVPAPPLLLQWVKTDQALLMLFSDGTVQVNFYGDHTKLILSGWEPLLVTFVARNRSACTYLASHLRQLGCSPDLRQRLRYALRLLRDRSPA

[14] = target: Death-associated protein kinase 3 (Homo sapiens, UniProt O43293); experiment: Inhibition of human DAPK3 in presence of ATP by kinomescan assay
Chain of Death-associated protein kinase 3 (O43293 whole entry): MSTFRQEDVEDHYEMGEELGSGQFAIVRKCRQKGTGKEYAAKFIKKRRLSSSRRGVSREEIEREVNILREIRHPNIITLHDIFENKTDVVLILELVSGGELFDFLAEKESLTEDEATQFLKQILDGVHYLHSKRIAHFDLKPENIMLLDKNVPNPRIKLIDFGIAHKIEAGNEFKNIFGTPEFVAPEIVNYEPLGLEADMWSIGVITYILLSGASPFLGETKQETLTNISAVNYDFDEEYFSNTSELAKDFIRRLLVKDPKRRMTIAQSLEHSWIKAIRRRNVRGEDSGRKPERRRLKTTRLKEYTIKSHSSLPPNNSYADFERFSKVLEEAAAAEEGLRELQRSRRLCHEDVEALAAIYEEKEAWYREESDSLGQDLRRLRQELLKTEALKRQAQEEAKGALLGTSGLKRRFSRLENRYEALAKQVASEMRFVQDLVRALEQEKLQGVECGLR

[15] = Inhibition of human recombinant CDK9 expressed in baculovirus insect Sf9 cells using YSPTSPSYSPTSPSYSPTSPSKKKK as substrate measured after 30 mins in presence of ATP by ADP-Glo assay
[16] = system: HCT-116; experiment: Cytotoxicity against human HCT-116 cells assessed as reduction in cell viability measured after 48 hrs by MTS assay; details: HCT-116, 48 h
[17] = system: HBL-100; experiment: Cytotoxicity against human HBL-100 cells assessed as reduction in cell viability measured after 48 hrs by MTS assay; details: HBL-100, 48 h
[18] = system: SH-SY5Y; experiment: Cytotoxicity against human SH-SY5Y cells assessed as reduction in cell viability measured after 48 hrs by MTS assay
[19] = system: U2OS; experiment: Cytotoxicity against human U2OS cells assessed as reduction in cell viability measured after 48 hrs by MTS assay

Chain of Dual specificity protein kinase CLK1 (P22518 whole entry, the tested form may be a part): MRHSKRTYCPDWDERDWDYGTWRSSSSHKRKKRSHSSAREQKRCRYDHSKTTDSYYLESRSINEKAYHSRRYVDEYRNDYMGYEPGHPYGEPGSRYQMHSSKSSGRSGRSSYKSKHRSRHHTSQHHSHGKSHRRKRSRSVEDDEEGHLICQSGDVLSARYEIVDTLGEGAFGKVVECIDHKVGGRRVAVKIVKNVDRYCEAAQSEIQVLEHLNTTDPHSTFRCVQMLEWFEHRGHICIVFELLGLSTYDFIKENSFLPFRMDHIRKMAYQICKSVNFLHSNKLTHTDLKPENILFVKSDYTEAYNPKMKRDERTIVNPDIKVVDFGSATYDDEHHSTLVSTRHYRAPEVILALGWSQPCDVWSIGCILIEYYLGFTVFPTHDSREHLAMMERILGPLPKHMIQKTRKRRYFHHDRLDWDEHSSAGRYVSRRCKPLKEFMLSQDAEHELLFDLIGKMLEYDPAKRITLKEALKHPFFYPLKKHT

SMILES | IC50 [1] [nM] | IC50 [2] [nM] | IC50 [3] [nM] | further results
CCCNc1ccc2ncc(-c3ccc4[nH]ncc4c3)n2n1 | 8 | 13 |  | IC50 [4]: 29 nM; IC50 [5]: 53 nM; IC50 [6]: 99 nM; IC50 [7]: 41 nM; IC50 [8]: 162 nM; IC50 [9]: 119 nM
CCOC(=O)CCSc1ncc2cc3cnccc3c([N+](=O)[O-])c2n1 |  |  | 897 | 
CCC(C)Sc1ncc2cc3cnccc3c([N+](=O)[O-])c2n1 (centres undefined) |  |  | 484 | 
COc1ncc2cc3cnccc3c([N+](=O)[O-])c2n1 |  |  |  | EC50 at 48 h [10]: 3200 nM; IC50 [11]: 294 nM; IC50 [12]: 125 nM; IC50 [13]: 117 nM; IC50 [14]: 578 nM
CSc1ncc2cc3cnccc3c([N+](=O)[O-])c2n1 |  |  | 119 | IC50 [15]: 407 nM; EC50 at 48 h [10]: 800 nM; EC50 [16]: 1100 nM; EC50 [17]: 1300 nM; EC50 [18]: 1200 nM
Nc1ccc2cc3cnccc3c([N+](=O)[O-])c2n1 | 20 | 87 | 3 | IC50 [15]: 24 nM; IC50 [5]: 418 nM; EC50 [19]: 300 nM; EC50 at 48 h [10]: 400 nM; EC50 [16]: 200 nM; EC50 [17]: 800 nM; EC50 [18]: 200 nM
CCC(C)Sc1ncc2cc3cnccc3c(N)c2n1 (centres undefined) |  |  | 202 | 
CCSc1ncc2cc3cnccc3c(N)c2n1 |  |  | 124 | 

More lines, main results first:

IC50 [1] [nM] | IC50 [2] [nM] | IC50 [3] [nM] | SMILES | further results
72 | 594 | 56 | CC(C)Sc1ncc2cc3cnccc3c(N)c2n1 | 
 |  | 432 | CCCCCSc1ncc2cc3cnccc3c(N)c2n1 | 
92 | 132 | 69 | CCCCSc1ncc2cc3cnccc3c(N)c2n1 | 
37 | 47 | 12 | CSc1ncc2cc3cnccc3c(N)c2n1 | IC50 [15]: 189 nM
90 | 148 | 65 | CCCSc1ncc2cc3cnccc3c(N)c2n1 | 
148 | 515 | 91 | CCSc1ncc2cc3cnccc3c([N+](=O)[O-])c2n1 | 
 |  | 169 | CCCSc1ncc2cc3cnccc3c([N+](=O)[O-])c2n1 | 
 |  | 1040 | CCCCSc1ncc2cc3cnccc3c([N+](=O)[O-])c2n1 | 
 |  | 114 | CC(C)Sc1ncc2cc3cnccc3c([N+](=O)[O-])c2n1 | 
 |  | 159 | COc1ncc2cc3cnccc3c(N)c2n1 | 

— ChEMBL document CHEMBL5154885, “Synthesis and biological evaluation of Haspin inhibitors: Kinase inhibitory potency and cellular activity” (Eur J Med Chem, 2022)
